System: Mannheimia haemolytica
Test: minimum inhibitory concentration (MIC)
Procedure: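 Broth microdilution MIC (Sensititre BOPO7F bovine plate, CLSI methods) of 19 antimicrobials against field isolates of P. multocida, M. haemolytica, H. somni (deep nasopharyngeal swabs) and E. coli, Enterococcus spp. (rectal swabs) from weaned dairy heifers. Incubation 16-24 h at 35 C. MIC is the lowest concentration preventing visible growth. Values with <= or > lie at the tested range limits. Trimethoprim-sulfamethoxazole is given as the trimethoprim component of a 1:19 mixture.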

COc1cc(NS(=O)(=O)c2ccc(N)cc2)nc(OC)n1 [sulfadimethoxine]
Details	minimum inhibitory concentration [µg/mL]
isolate (source animal id): 56	> 256
isolate (source animal id): 57	> 256
isolate (source animal id): 100	> 256
isolate (source animal id): 103	> 256
isolate (source animal id): 107	> 256
isolate (source animal id): 108	> 256
isolate (source animal id): 112	> 256
isolate (source animal id): 113	> 256
isolate (source animal id): 121	> 256
isolate (source animal id): 122	> 256
isolate (source animal id): 123	> 256
isolate (source animal id): 126	> 256
isolate (source animal id): 133	> 256
isolate (source animal id): 135	> 256
isolate (source animal id): 138	> 256
isolate (source animal id): 141	> 256
isolate (source animal id): 142	> 256
isolate (source animal id): 145	> 256
isolate (source animal id): 149	≤ 256
isolate (source animal id): 151	≤ 256
isolate (source animal id): 152	≤ 256
isolate (source animal id): 154	≤ 256
isolate (source animal id): 159	> 256
isolate (source animal id): 162	> 256
isolate (source animal id): 170	> 256
isolate (source animal id): 171	> 256
isolate (source animal id): 172	> 256
isolate (source animal id): 173	> 256
isolate (source animal id): 179	> 256
isolate (source animal id): 180	> 256
isolate (source animal id): 183	> 256
isolate (source animal id): 186	> 256
isolate (source animal id): 187	> 256
isolate (source animal id): 188	> 256
isolate (source animal id): 190	> 256
isolate (source animal id): 191	> 256
isolate (source animal id): 192	> 256
isolate (source animal id): 201	> 256
isolate (source animal id): 202	> 256
isolate (source animal id): 209	> 256
isolate (source animal id): 211	≤ 256
isolate (source animal id): 220	> 256
isolate (source animal id): 221	> 256
isolate (source animal id): 223	> 256
isolate (source animal id): 233	> 256
isolate (source animal id): 237	≤ 256
isolate (source animal id): 241	> 256
isolate (source animal id): 252	> 256
isolate (source animal id): 253	> 256
isolate (source animal id): 259	> 256
isolate (source animal id): 260	> 256
isolate (source animal id): 262	> 256
isolate (source animal id): 282	> 256
isolate (source animal id): 287	> 256
isolate (source animal id): 288	> 256
isolate (source animal id): 291	≤ 256
isolate (source animal id): 293	> 256
isolate (source animal id): 298	> 256
isolate (source animal id): 299	> 256
isolate (source animal id): 300	≤ 256
isolate (source animal id): 302	> 256
isolate (source animal id): 304	> 256
isolate (source animal id): 306	> 256
isolate (source animal id): 308	≤ 256
isolate (source animal id): 309	≤ 256
isolate (source animal id): 313	> 256
isolate (source animal id): 318	> 256
isolate (source animal id): 320	≤ 256
isolate (source animal id): 321	> 256
isolate (source animal id): 323	> 256
isolate (source animal id): 324	> 256
isolate (source animal id): 326	> 256
isolate (source animal id): 328	> 256
isolate (source animal id): 329	> 256
isolate (source animal id): 333	> 256
isolate (source animal id): 335	> 256
isolate (source animal id): 338	> 256

— the supplement of paper PMC8612539
